Test results published in patent publication US20210087191A1, “SUBSTITUTED 3-ISOBUTYL-9,10-DIMETHOXY-1,3,4,6,7,11B-HEXAHYDRO-2H-PYRIDO[2,1-a]ISOQUINOLIN-2-OL COMPOUNDS, THEIR [sequence], AND USE THEREOF” (DISPERSOL TECHNOLOGIES, LLC, priority 2020, published 2021).
Values after ≈ are worked out from the molar mass of the structure shown. Like-named read-outs stand apart in the source and are kept apart here.

Key:
[1] = cited from earlier work
[2] = compared to the other three isomers; cited from earlier work
[3] = in vivo; cited from earlier work
[4] = Metabolic stability in human liver microsomes (LM), LC-MS/MS (first table); format: in vitro ADME; settings: for microsomal CLint: Table 1, read-out: Human LM CLint (μL/min/mg protein); for half-life: Table 1, read-out: Human LM t1/2
Method: (§1) Metabolism of compound(s) to release (+)-α-DTHBZ was determined by the half-life (t1/2) and intrinsic clearance (CIint) in human plasma (PS) and liver microsomes (LM) using tandem mass spectrometry (LC-MS/MS).

[5] = Stability in human plasma (PS), LC-MS/MS; format: in vitro ADME; settings: for half-life: read-out: Human PS t1/2
Method: as §1

[6] = LM stability assay, human (second table); format: in vitro ADME; settings: human liver microsomes, Table 2; for microsomal CLint: read-out: LM stability assay Human Clint (μL/min/mg protein); for half-life: read-out: LM stability assay Human t1/2
Method: Metabolism of compound(s) to release (+)-α-DTHBZ was determined by the half-life (t1/2) and intrinsic clearance (CIint) in human liver microsomes (LM) using tandem mass spectrometry (LC-MS/MS).

[7] = test system: human cryopreserved hepatocytes; experiment: Heps. stability assay, human cryopreserved hepatocytes; format: in vitro ADME
Method: (§2) Metabolism of compound(s) to release (+)-α-DTHBZ was determined by the half-life (t1/2) and intrinsic clearance (CIint) in human cryopreserved hepatocytes using tandem mass spectrometry (LC-MS/MS).

[8] = Kinetic solubility in PBS buffer; format: physicochemical; settings: aqueous buffer, kinetic from dmso stock, compound suspended at 300 μM, 25° C.
Method: Kinetic solubility was determined by suspending compound at 300 μM at pH 1.2 and 7.4 in PBS buffer. The suspension was equilibrated by shaking at 25° C. at 1100 RPM for 2 hours and then pH was measured following filtration. The filtrate was then diluted by an appropriate factor (e.g. 100-fold). Quantitation was done by LC-MS/MS with reference to a standard solution.

[9] = Permeability in Caco-2 cell monolayer; format: in vitro ADME; settings: human; for efflux ratio: Caco-2; for Papp A→B: Caco-2, apical to basolateral; for Papp B→A: Caco-2, basolateral to apical
Method: The intestinal permeability of compound(s) was evaluated in Caco-2 cells by assessing transport across the cell monolayer in the apical to basolateral (A-B) direction. Active efflux was also assessed by measuring transport in the basolateral to apical (BA) direction which enables evaluation of the efflux ratio. Analysis of transport is quantified by tandem mass spectrometry (LC-MS/MS).

[10] = Heps. stability assay, human cryopreserved hepatocytes; format: in vitro ADME; settings: for microsomal CLint: read-out: Heps. stability assay Human Clint (μL/min/mg protein); for half-life: read-out: Heps. stability assay Human t1/2
Method: as §2

[11] = cited from earlier work; remark: listed apart in the source
[12] = human, oral 25 mg IR formulation; cited from earlier work
[13] = biological target: vesicular monoamine transporter-2 (VMAT2) (Homo sapiens, UniProt Q05940); settings: read-out: IC50, inhibition of catecholamine uptake by VMAT2; cited from earlier work
Sequence of vesicular monoamine transporter-2 (VMAT2) (Q05940 whole entry, species assumed): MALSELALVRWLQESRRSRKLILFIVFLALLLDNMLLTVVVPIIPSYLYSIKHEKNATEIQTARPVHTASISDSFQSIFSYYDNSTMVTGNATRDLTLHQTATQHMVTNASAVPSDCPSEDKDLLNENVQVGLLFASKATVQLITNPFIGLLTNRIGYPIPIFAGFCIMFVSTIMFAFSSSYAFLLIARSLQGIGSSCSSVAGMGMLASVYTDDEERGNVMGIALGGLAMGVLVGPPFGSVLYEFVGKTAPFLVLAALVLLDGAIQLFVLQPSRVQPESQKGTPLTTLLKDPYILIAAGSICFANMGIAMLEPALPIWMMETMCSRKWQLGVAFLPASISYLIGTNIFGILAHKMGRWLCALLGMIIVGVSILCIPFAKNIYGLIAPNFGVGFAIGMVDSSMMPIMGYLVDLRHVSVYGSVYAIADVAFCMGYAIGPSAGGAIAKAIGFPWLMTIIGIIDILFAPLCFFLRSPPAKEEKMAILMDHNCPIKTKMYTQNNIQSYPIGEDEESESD

[14] = test system: VMAT1, other receptors (e.g., dopamine D2 receptors), transporters, and ion channels; settings: in vitro; cited from earlier work
[15] = pH 1.2, PBS buffer, read-out: Kinetic Solubility pH = 1.2 (300 μM)
[16] = pH 7.4, PBS buffer, read-out: Kinetic Solubility pH = 7.4 (300 μM)

Row | SMILES | microsomal CLint [4] [µL/min/mg] | half-life [4] [h] | solubility kinetic at 2 h [8, 15] [µM] | solubility kinetic at 2 h [8, 16] [µM] | efflux ratio [9] | Papp A→B [9] [×10⁻⁶ cm/s] | Papp B→A [9] [×10⁻⁶ cm/s] | half-life [5] [h] | microsomal CLint [6] [µL/min/mg] | half-life [6] [h] | microsomal CLint [10] [µL/min/mg] | half-life [10] [h] | other results
1 | COc1cc2c(cc1OC)[C@H]1C[C@@H](O)[C@H](CC(C)C)CN1CC2 [(+)-α-DHTBZ, 2R,3R,11bR-dihydrotetrabenazine] | – | – | – | – | – | – | – | – | – | – | – | – | Cmax (time) of (+)-α-DHTBZ formed from Valbenazine ([1]; after Valbenazine, hydrolysis of the valine ester): 4 to 8 h; Tmax of (+)-α-DHTBZ after the administration of Valbenazine ([1]; after administration of Valbenazine): 4 to 8 h; off-target affinity [2]: no off-target affinity
2 | [2H]C([2H])([2H])Oc1cc2c(cc1OC([2H])([2H])[2H])C1CC(=O)C(CC(C)C)CN1CC2 (centres unmarked) [Austedo®] | – | – | – | – | – | – | – | – | – | – | – | – | median Tmax [3]: 3 to 4 h
3 | COc1cc2c(cc1OC)[C@H]1C[C@@H](OC(=O)CCC(=O)O)[C@H](CC(C)C)CN1CC2 [Example 2, 4-[[(2R,3R,11bR)-9,10-dimethoxy-3-(2-methylpropyl)-1H,2H,3H,4H,6H,7H,11bH-pyrido[2,1-a]isoquinolin-2-yl]oxy]-4-oxobutanoic acid] | < 0.79 | > 14.7 | 281 (≈ 118 µg/mL) | 295 (≈ 124 µg/mL) | 2.54 | 8.67 | 22 | – | – | – | – | – | Human PS t1/2 (min) [5]: ∞; LM stability assay Human t1/2 (min) [6]: ∞; Heps. stability assay Human t1/2 (min) [7]: ∞
4 | COc1cc2c(cc1OC)[C@H]1C[C@@H](OC(=O)c3cncc(C(=O)O)c3)[C@H](CC(C)C)CN1CC2 [Example 6, 5-([[(2R,3R,11bR)-9,10-dimethoxy-3-(2-methylpropyl)-1H,2H,3H,4H,6H,7H,11bH-pyrido[2,1-a]isoquinolin-2-yl]oxy]carbonyl)pyridine-3-carboxylic acid] | < 0.35 | > 32.9 | 276 (≈ 130 µg/mL) | 294 (≈ 138 µg/mL) | 25.1 | 0.68 | 17.1 | > 44.7 | 1.67 | 13.4 | – | – | Heps. stability assay Human t1/2 (min) [7]: ∞
5 | COc1cc2c(cc1OC)[C@H]1C[C@@H](OC(=O)NCC(C)C)[C@H](CC(C)C)CN1CC2 [Example 23, (2R,3R,11bR)-9,10-dimethoxy-3-(2-methylpropyl)-1H,2H,3H,4H,6H,7H,11bH-pyrido[2,1-a]isoquinolin-2-yl N-(2-methylpropyl)carbamate] | < 3.95 | > 2.92 | 312 (≈ 131 µg/mL) | 91.2 (≈ 38.2 µg/mL) | 0.67 | 14.2 | 9.54 | 438 | 208 | 0.0557 | 35.6 | 0.649 | –
6 | COc1cc2c(cc1OC)C1CC(=O)C(CC(C)C)CN1CC2 (centres unmarked) [TBZ, 3-isobutyl-9,10-dimethoxy-1,3,4,6,7,11b-hexahydro-2H-pyrido[2,1-a]isoquinolin-2-one] | – | – | – | – | – | – | – | – | – | – | – | – | solubility in acidic environments ([11]; pH<2): 8500 µg/mL (≈ 26.8 mM); solubility in neutral environments ([11]; pH>4): 30 µg/mL (≈ 0.0945 mM); Mean Tmax [12]: approximately 1 hour; mean t1/2 [12]: approximately 2 hours; Tmax [3]: 1 h; IC50 [13]: 3.2 nM
7 | COc1cc2c(cc1OC)[C@H]1C[C@@H](OC(=O)[C@@H](N)C(C)C)[C@H](CC(C)C)CN1CC2 [Valbenazine, (2R,3R,11bR)-9,10-dimethoxy-3-(2-methylpropyl)-1,3,4,6,7,11b-hexahydro-2H-benzo[a]quinolizin-2-yl L-valinate] | – | – | – | – | – | – | – | – | – | – | – | – | oral bioavailability ([1]; in vivo, po): 49%; Tmax ([1]; in vivo): 0.5 to 1 h; excreted in feces ([1]; in vivo): 30%; excreted in urine ([1]; in vivo): Approximately 60%; parent compound or active metabolite excreted unchanged ([1]; in vivo): Less than 2%; t1/2 ([1]; in vivo): 15 to 22 h; affinity for VMAT1, other receptors, transporters, and ion channels [14]: little or no affinity

More lines, main results first:

Row | microsomal CLint [4] [µL/min/mg] | half-life [4] [h] | solubility kinetic at 2 h [8, 15] [µM] | solubility kinetic at 2 h [8, 16] [µM] | efflux ratio [9] | Papp A→B [9] [×10⁻⁶ cm/s] | Papp B→A [9] [×10⁻⁶ cm/s] | half-life [5] [h] | microsomal CLint [6] [µL/min/mg] | half-life [6] [h] | microsomal CLint [10] [µL/min/mg] | half-life [10] [h] | SMILES | other results
8 | < 0.08 | > 143 | 317 (≈ 244 µg/mL) | 0.06 (≈ 0.0462 µg/mL) | – | < 0.01 | < 0.01 | > 53.7 | – | – | 16.6 | 1.39 | COc1cc2c(cc1OC)[C@H]1C[C@@H](OC(=O)c3cncc(C(=O)O[C@@H]4C[C@@H]5c6cc(OC)c(OC)cc6CCN5C[C@H]4CC(C)C)c3)[C@H](CC(C)C)CN1CC2 [Example 15, 3,5-bis[(2R,3R,11bR)-9,10-dimethoxy-3-(2-methylpropyl)-1H,2H,3H,4H,6H,7H,11bH-pyrido[2,1-a]isoquinolin-2-yl] pyridine-3,5-dicarboxylate] | LM stability assay Human t1/2 (min) [6]: ∞
9 | < 1.25 | > 9.21 | 141 (≈ 110 µg/mL) | 0.042 (≈ 0.0326 µg/mL) | – | < 0.02 | < 0.01 | – | 150 | 0.0775 | 22.6 | 1.03 | COc1cc2c(cc1OC)[C@H]1C[C@@H](OC(=O)CCCCCCC(=O)O[C@@H]3C[C@@H]4c5cc(OC)c(OC)cc5CCN4C[C@H]3CC(C)C)[C@H](CC(C)C)CN1CC2 [Example 16, bis[(2R,3R,11bR)-9,10-dimethoxy-3-(2-methylpropyl)-1H,2H,3H,4H,6H,7H,11bH-pyrido[2,1-a]isoquinolin-2-yl] octanedioate] | Human PS t1/2 (min) [5]: ∞
10 | 1.59 | 7.6 | 308 (≈ 222 µg/mL) | 0.0019 (≈ 0.00137 µg/mL) | > 1.93 | < 0.02 | 0.0333 | 36.9 | 71.5 | 0.162 | 16.9 | 1.37 | COc1cc2c(cc1OC)[C@H]1C[C@@H](OC(=O)CCC(=O)O[C@@H]3C[C@@H]4c5cc(OC)c(OC)cc5CCN4C[C@H]3CC(C)C)[C@H](CC(C)C)CN1CC2 [Example 17] | –
